# Measured values: US6372690B1 (McGill University, priority 1998, dated 2002)
# “Also recorded” adds a separate entry of the source.
# Columns and labels:
# [1] = tested on: ragweed; experiment: General conclusions on ragweed control from the experiments; assay type: in vivo
# [2] = tested on: ragweed; experiment: Example 3: assay with other non-ionic surfactants, ragweed plots in waste area situation; assay type: in vivo
# Method: This experiment was conducted to test another solution containing another non-ionic surfactant. The experiment was conducted on plots behind a beef barn complex, on ragweed of 6 to 10 inches in height, fully flowered, in a very hard and gravely soil, such as in a waste area situation. The experiment was conducted as a completely randomized design (CRD) with three replicates.
# Each plot has a surface of one (1) m^2. The sprayer used was a small compressed air sprayer with 210 kPa pressure and a T-Jet™ 8002 nozzle. The plots were sprayed Sep. 3, 1996 at 10:00 a.m. under a bright sunshine and a temperature of 28° C. In all instances, the efficacy of the solution was evaluated 20-30 minutes, 2-4 hrs, 16-24 hrs, and 2-5 days after spraying. The efficacy of the solution was determined based on level of plant deterioration.
# In this experiment, 14 different treatments were applied to the different plots (with three replicates/treatment).
# Once it had been determined that a surfactant could possibly increase efficacy of the NaCl at the same time as reducing the spray volume needed, another non-ionic surfactant, namely Citowett™, was introduced into the trials. All surfactants were applied at the rates usually recommended in the Ontario Guide to Chemical Weed Control (OMAFRA, 1997).
# [3] = tested on: all types of vegetation; conditions: Frear, Chemistry of Pesticides 3rd ed. p. 401, 1955; cited from earlier work
# [4] = tested on: ragweed; experiment: Spraying of ragweed plants as described in the description and FIGS. 1-3; assay type: in vivo; conditions: 12% NaCl solution
# [5] = tested on: ragweed; experiment: Example 4: concentration of salt with or without surfactants, tall ragweed in cultivated field; assay type: in vivo; conditions: tall ragweed (40-60 inches)
# Method: This experiment was conducted on plot of tall ragweed (40-60 inches), fully flowered, in a cultivated field situation. The experiment was conducted as a completely randomized design (CRD) with three replicates.
# (§1) Each plot has a surface of four (4) m^2. The sprayer used was a Hardi™ pack sprayer with 200-220 kPa pressure and T-Jet™ 8002 nozzle. The plots were sprayed Sep. 6, 1996 at 09:00 a.m. under a bright sunshine and a temperature of 26° C. In all instances, the efficacy of the solution was evaluated 30 minutes, 2-4 hrs, 16-24 hrs, and 2-5 days after spraying. The efficacy of the solution was determined based on level of plant deterioration.
# (§2) In this experiment, 8 different treatments were applied to the different plots (with three replicates/treatment).
# [6] = tested on: ragweed; experiment: Example 5: optimization of salt concentration with or without surfactants, cut ragweed in roadside situation; assay type: in vivo
# Method: This experiment was conducted on plots having ragweed 4 to 6 inches tall, in flower, and which had been cut at least once, in a roadside situation. The experiment was conducted as a randomized complete block design (RCBD) with three replicates.
# as §1, with “small compressed air” for “Hardi™ pack”, “210” for “200-220”, “13:30,” for “09:00 a.m.”, “29°” for “26°”
# as §2
# Only the 8% and 12% rates were considered in this experiment because it had been observed that there was no efficacy or economic benefit to using the 16% or 20% rates of NaCl. Both NaCl concentrations were applied alone or with each of the three surfactants.
# [7] = tested on: ragweed; experiment: Example 2: determination of an adequate volume sprayed, ragweed plots sprayed at 1000 l/ha; assay type: in vivo
# Method: This experiment was conducted to determine if increasing the spray volume to the point where the plants were completely covered to the run-off stage would improve efficacy.
# This experiment was conducted on plots within a fencerow of an agricultural field where ragweed plants had attained 12 to 20 inches in height, and were in full flower. The experiment was conducted as a completely randomized design (CRD) with three replicates.
# Each plot has a surface of one (1) m^2. The sprayer used was a Hardi™ pack sprayer with Hardi™ nozzle and 200-220 kPa of pressure. The plots were sprayed Aug. 29, 1996 at 13:30 under a bright sunshine and a temperature of 29° C. The spray volume used was 1000 l/ha or 100 ml/m^2 plot.
# In all instances, the efficacy of the solution was evaluated 30 minutes, 2-4 hrs, 16-24 hrs, and 2-5 days after spraying. The efficacy of the solution was determined based on level of plant deterioration.
# In this experiment, 6 different treatments (having three replicates each) were subjected to the different plots.
# [8] = tested on: broad-leaved plantain; experiment: Selective control of broad-leaved plantain in turf (FIG. 4); assay type: in vivo; conditions: 12% NaCl solution; 24 hours following the application
Compound,suitability as alternative to NaCl ([1]; KNO3 at the 12% rate),efficacy compared with the NaCl solutions ([2]; 12% KNO3),"ragweed control (general conclusion) ([1]; salt solutions, especially NaCl solutions)",herbicidal effect and selectivity [3],effect on ragweed plants (FIGS. 2 and 3) ([4]; 24 hours following spraying),effect on ragweed plant (FIG. 1) ([4]; within 6 hours of applying),control ([5]; 8% NaCl),efficiency compared with higher concentrations ([5]; 12% NaCl without surfactant),control of ragweed ([6]; 8% NaCl alone),"effect 30 minutes after application ([6]; 12% NaCl alone, 30 minutes)","effect 2 days after spraying ([6]; 12% NaCl alone, 2 days)",activity at damaging the ragweed ([7]; 8% NaCl),overall efficacy ([7]; 12% NaCl),"difference in effect between 12% and 16% solution ([7]; 16% NaCl versus 12% NaCl, any time except 30 minutes after application)","speed of wilting ([7]; 16% NaCl, 30 minutes after application)","reaction of ragweed to the sprays ([7]; NaCl at all three concentrations (8, 12, 16% W/V), 30 minutes after spraying)",control of broad-leaved plantain in turf (FIG. 4) [8],efficacy compared with the 12% solution ([2]; 8% NaCl alone),overall damage to the ragweed compared with the 12% solution ([2]; 16% NaCl),overall damage to the ragweed compared with the 12% solution ([2]; 20% NaCl)
"O=[N+]([O-])[O-].[K+] [KNO3, potassium nitrate, reference compound]",not a viable alternative to NaCl,not as effective as any of the NaCl solutions,,,,,,,,,,,,,,,,,,
"[Cl-].[Na+] [NaCl, sodium chloride]",,,effective at ragweed control,"will kill all types of vegetation, without any selection",drooping of ragweed staminate flowers and desiccation of leaves; also recorded: desiccated,curling and wilting,slightly lower,as efficient as 16% or 20%,inferior control of ragweed compared with the 12% solution,drooping,complete necrosis,there was activity but it did not seem to be as effective as the 12% concentration,sufficient,little difference,appeared to have wilted more quickly than those treated with 12%,the inflorescences were drooping,selective control,not as effective as the 12% solution,did not visibly improve overall damage to the ragweed,did not visibly improve overall damage to the ragweed
